Tested on: normal human dermal fibroblast cultures
Test: Incorporation of radioactive (tritiated) thymidine into normal human dermal fibroblast cultures (fibroblast proliferation)
Format: cell-based
Conditions: for % (thymidine incorporation relative to untreated control = 100) / cpm (counts per minute), tritiated thymidine incorporated: 48 hours contact, 24 hours labeling, EGF 1.67 × 10^−3 μM, vitamin C 20 μM, resveratrol 5 μM, or 5 μM resveratrol + 20 μM vitamin C; for cpm (counts per minute), tritiated thymidine incorporated: untreated control 10320; for %, difference relative to the untreated control / cpm, difference relative to the untreated control: same treatments, value in brackets
Description: The study has carried out by measuring the incorporation of radioactive thymidine into normal human dermal fibroblast cultures.
The fibroblast cultures were prepared according to the standard methods of cell culturing, i.e., in MEM/M199 medium marketed by Gibco, in the presence of sodium bicarbonate (1.87 mg/ml), L-glutamine (2 mM), penicillin (50 IU/ml) and 10% foetal calf serum (Gibco).
The test was carried out on cell cultures at 80% of confluence on 24-well plates. Resveratrol, at a concentration of 1.25 μM and 5 μM, was placed in contact with the cells for 48 hours. Labeling with tritiated thymidine ([methyl-3H] thymidine marketed by Amersham, 82 Ci/mmol) was carried out for 24 hours.
The level of tritiated thymidine incorporated was measured at the end of the test by acidic precipitation of the proteins on filters and counting by liquid scintillation.
The results were evaluated relative to a control consisting of cells which had not been treated.
A positive control [EGF: Epidermal Growth Factor] at 1.67×10^−3 μM, which was known to stimulate fibroblast proliferation, was introduced into the test by way of reference.

Molecule | % (thymidine incorporation relative to untreated control = 100) [%] | cpm (counts per minute), tritiated thymidine incorporated [cpm] | %, difference relative to the untreated control | cpm, difference relative to the untreated control
EGF: Epidermal Growth Factor, positive control known to stimulate fibroblast proliferation | 283 | 29214 | +183% | (+18894) cpm
Oc1ccc(C=Cc2cc(O)cc(O)c2)cc1 [resveratrol, 3,4′,5-Trihydroxystilbene] | 110 | 11365 | +10% | (+1045) cpm
O=C1O[C@H]([C@@H](O)CO)C(O)=C1O [vitamin C, ascorbic acid] | 132 | 13595 | +32% | (+3275) cpm
